For 7 compounds, Ratio, Ratio Ki and Ki results are on record in ChEMBL document CHEMBL2069290, “Synthesis and biological evaluation of novel oxindole derivatives for imaging neurofibrillary tangles in Alzheimer's disease” (Bioorg Med Chem Lett, 2012).

Data set [1] concerns Brain. The data set can be described thus: Ratio of drug uptake in ddY mouse brain after 2 mins to drug uptake in ddY mouse brain after 30 mins. The data set is classed as ADME, tissue-based. Conditions: in vivo.
The species named for data set [2] is Homo sapiens. The data set can be described thus: Selectivity ratio of Kd for amyloid beta(1 to 42) to Kd for human Tau.
Data set [3] is filed under the species Homo sapiens. The data set is described as follows: Selectivity ratio of Ki for amyloid beta(1 to 42) to Ki for human Tau.
The target in data set [4] is Amyloid-beta precursor protein (Homo sapiens, UniProt P05067). The data set is described as follows: Binding affinity to amyloid beta(1 to 42) aggregates after 30 mins by Thioflavin-S-based fluorescence assay.
Data set [5] has as its target Microtubule-associated protein tau (Homo sapiens, UniProt P10636). The data set is described as follows: Binding affinity to human Tau aggregates after 30 mins by Thioflavin-S-based fluorescence assay.

Microtubule-associated protein tau, sequence (P10636 whole entry): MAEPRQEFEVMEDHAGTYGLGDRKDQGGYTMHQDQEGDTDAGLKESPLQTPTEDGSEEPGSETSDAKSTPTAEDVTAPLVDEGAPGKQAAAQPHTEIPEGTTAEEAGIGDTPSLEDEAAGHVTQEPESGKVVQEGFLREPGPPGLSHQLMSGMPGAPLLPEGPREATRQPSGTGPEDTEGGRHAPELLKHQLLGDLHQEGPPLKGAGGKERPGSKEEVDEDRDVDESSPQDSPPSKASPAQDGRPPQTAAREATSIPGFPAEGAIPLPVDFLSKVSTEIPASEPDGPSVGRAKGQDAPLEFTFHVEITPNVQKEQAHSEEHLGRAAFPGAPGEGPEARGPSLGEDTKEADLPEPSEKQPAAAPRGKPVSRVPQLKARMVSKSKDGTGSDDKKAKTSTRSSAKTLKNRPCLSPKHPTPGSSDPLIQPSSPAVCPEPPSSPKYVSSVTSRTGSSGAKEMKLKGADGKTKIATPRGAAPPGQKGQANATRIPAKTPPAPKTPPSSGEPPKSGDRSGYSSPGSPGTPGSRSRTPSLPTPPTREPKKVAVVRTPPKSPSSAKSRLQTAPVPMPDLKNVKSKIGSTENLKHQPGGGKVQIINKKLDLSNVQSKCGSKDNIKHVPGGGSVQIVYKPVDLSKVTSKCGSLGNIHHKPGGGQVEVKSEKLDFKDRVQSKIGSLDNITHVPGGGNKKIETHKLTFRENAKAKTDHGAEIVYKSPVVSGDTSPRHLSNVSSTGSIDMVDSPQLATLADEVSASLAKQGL
Amyloid-beta precursor protein, sequence (P05067 whole entry): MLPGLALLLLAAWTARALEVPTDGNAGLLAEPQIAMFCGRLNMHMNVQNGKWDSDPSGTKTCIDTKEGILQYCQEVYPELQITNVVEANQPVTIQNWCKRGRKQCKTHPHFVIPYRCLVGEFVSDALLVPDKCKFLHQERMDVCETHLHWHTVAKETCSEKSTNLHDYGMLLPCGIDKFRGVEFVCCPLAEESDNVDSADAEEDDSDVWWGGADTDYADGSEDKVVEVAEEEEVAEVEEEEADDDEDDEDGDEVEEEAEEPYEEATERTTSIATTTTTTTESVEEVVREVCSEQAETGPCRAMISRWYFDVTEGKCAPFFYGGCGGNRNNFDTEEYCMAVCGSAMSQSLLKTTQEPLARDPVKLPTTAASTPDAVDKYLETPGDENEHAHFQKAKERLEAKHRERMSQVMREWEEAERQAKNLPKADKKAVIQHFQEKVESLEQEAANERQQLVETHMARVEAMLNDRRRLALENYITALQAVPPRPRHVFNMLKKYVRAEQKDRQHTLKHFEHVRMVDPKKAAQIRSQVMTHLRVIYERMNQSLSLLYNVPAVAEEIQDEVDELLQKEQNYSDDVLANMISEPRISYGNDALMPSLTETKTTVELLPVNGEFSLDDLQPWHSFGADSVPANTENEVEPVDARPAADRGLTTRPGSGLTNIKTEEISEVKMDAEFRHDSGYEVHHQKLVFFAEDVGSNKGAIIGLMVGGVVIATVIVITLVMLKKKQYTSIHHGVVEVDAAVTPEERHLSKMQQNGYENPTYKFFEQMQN

In the case of `O=C1/C(=C/c2ccc(-c3cccc([125I])c3)o2)NC(=S)N1CCc1c[nH]cn1`, in data set [1], the Ratio amounted to 2.33.

For `CN(C)c1ccc(/N=N/c2nc3ccc(OCCOCCOCCF)cc3s2)cc1`, in data set [2], the Ratio came to 1.54.

Consider `Nc1ccc(-c2ccc3cc(OCC[18F])ccc3n2)cc1`, for which the Ratio in data set [1] is on record as < 2.

Regarding `[11CH3]Nc1ccc(-c2ccc3ccccc3n2)cc1`, in data set [1], the Ratio is listed as 3.65.

With `O=C1/C(=C/c2ccc(-c3cccc(I)c3)o2)NC(=S)N1CCc1c[nH]cn1`, in data set [3], the Ratio Ki was 7.33.

As a reminder, the Ki is the dissociation constant of the complex between target and ligand, obtained from inhibition or displacement. High values mean a looser hold on the target, low ones a stronger hold on the target. For `CNc1ccc(/C=C2\Nc3ccc(I)cc3C2=O)cc1`, the Ki in data set [4] is 116 nM; in data set [5] it was 112 nM. In addition, the Ratio Ki in data set [3] stood at 1.03.

Regarding `CNc1ccc(C=C2C(=O)Nc3ccc(I)cc32)cc1`, the inhibitory constant (Ki) in data set [4] stood at 5060 nM; in data set [5] it was 1430 nM. For the same compound, the Ratio Ki in data set [3] was determined as 3.54.
